Assays:
Assay in all cases: sensitivity of leukemia/lymphoma cell line, 5 uM cut-off
Type in all cases: cell-based
[1] = system: A3; conditions: Homo sapiens, read-out: sensitivity class by EC50
Description: (§1) The following SCLC cell lines were obtained from ATCC (Manassis, Va.): NCI-H889, NCI-H1963, NCI-H1417, NCI-H146, NCI-H187, DMS53, NCI-H510, NCI-H209, NCI-H211, NCI-H345, NCI-H524, NCI-H69, DMS79, SHP77, NCI-H1688, NCI-H446, NCI-H740, NCI-H1048, NCI-H82, NCI-H196, SW1271, H69AR, NCI-H526, NCI-H865, NCI-H748, NCI-H711, and DMS114. All cells were cultured in the ATCC recommended media at 37° C. in a humidified atmosphere containing 5% CO2. The following leukemia and lymphoma cell lines were obtained from ATCC (Manassis, Va.): MV-4-11, RS4;11, Loucy, KG-1A, DOHH2, Rs11380, CCRF-HSB-2, CCRF-CEM, CEM/C1, Reh, SUP-B15, MOLT-4, SUDHL4, HL-60, RPMI 8226, A3, Daudi, WSU-NHL, Pfeiffer, Jurkat I 9.2, Jurkat, MEG-01, U-937, K-562, and Raji.
(§2) The 25 leukemia/lymphoma cell lines were also tested for sensitivity to ABT-737 using the 5 uM cut-off, and sensitive cell lines were MV-4-11, RS4;11, Loucy, KG-1A, DOHH2, Rs11380, CCRF-HSB-2, CCRF-CEM, CEM/C1, Reh, SUP-B15, MOLT-4, SUDHL4, HL-60, RPMI 8226, A3, Daudi, WSU-NHL, Pfeiffer, and Jurkat I 9.2, and the resistant cell lines Jurkat, MEG-01, U-937, K-562, and Raji.
as §2, with “ABT-263” for “ABT-737”

[2] = system: CCRF-CEM; conditions: Homo sapiens, read-out: sensitivity class by EC50
Description: as §1, §2
as §2, with “ABT-263” for “ABT-737”

[3] = system: CCRF-HSB-2; conditions: Homo sapiens, read-out: sensitivity class by EC50
Description: as §1, §2
as §2, with “ABT-263” for “ABT-737”

[4] = system: CEM/C1; conditions: Homo sapiens, read-out: sensitivity class by EC50
Description: as §1, §2
as §2, with “ABT-263” for “ABT-737”

[5] = system: DOHH2; conditions: Homo sapiens, DOHH-2, read-out: sensitivity class by EC50
Description: as §1, §2
as §2, with “ABT-263” for “ABT-737”

[6] = system: Daudi; conditions: Homo sapiens, read-out: sensitivity class by EC50
Description: as §1, §2
as §2, with “ABT-263” for “ABT-737”

[7] = system: HL-60; conditions: Homo sapiens, read-out: sensitivity class by EC50
Description: as §1, §2
as §2, with “ABT-263” for “ABT-737”

[8] = system: Jurkat I 9.2; conditions: Homo sapiens, read-out: sensitivity class by EC50
Description: as §1, §2
as §2, with “ABT-263” for “ABT-737”

[9] = system: Jurkat; conditions: Homo sapiens, read-out: sensitivity class by EC50
Description: as §1, §2
as §2, with “ABT-263” for “ABT-737”

[10] = system: K-562; conditions: Homo sapiens, K562, read-out: sensitivity class by EC50
Description: as §1, §2
as §2, with “ABT-263” for “ABT-737”

[11] = system: KG-1A; conditions: Homo sapiens, read-out: sensitivity class by EC50
Description: as §1, §2
as §2, with “ABT-263” for “ABT-737”

[12] = system: Loucy; conditions: Homo sapiens, read-out: sensitivity class by EC50
Description: as §1, §2
as §2, with “ABT-263” for “ABT-737”

[13] = system: MEG-01; conditions: Homo sapiens, read-out: sensitivity class by EC50
Description: as §1, §2
as §2, with “ABT-263” for “ABT-737”

[14] = system: MOLT-4; conditions: Homo sapiens, read-out: sensitivity class by EC50
Description: as §1, §2
as §2, with “ABT-263” for “ABT-737”

[15] = system: MV-4-11; conditions: Homo sapiens, MV4-11, read-out: sensitivity class by EC50
Description: as §1, §2
as §2, with “ABT-263” for “ABT-737”

[16] = system: Pfeiffer; conditions: Homo sapiens, read-out: sensitivity class by EC50
Description: as §1, §2
as §2, with “ABT-263” for “ABT-737”

[17] = system: RPMI 8226; conditions: Homo sapiens, read-out: sensitivity class by EC50
Description: as §1, §2
as §2, with “ABT-263” for “ABT-737”

[18] = system: RS4;11; conditions: Homo sapiens, read-out: sensitivity class by EC50
Description: as §1, §2
as §2, with “ABT-263” for “ABT-737”

[19] = system: Raji; conditions: Homo sapiens, read-out: sensitivity class by EC50
Description: as §1, §2
as §2, with “ABT-263” for “ABT-737”

[20] = system: Reh; conditions: Homo sapiens, read-out: sensitivity class by EC50
Description: as §1, §2
as §2, with “ABT-263” for “ABT-737”

[21] = system: Rs11380; conditions: Homo sapiens, read-out: sensitivity class by EC50
Description: as §1, §2
as §2, with “ABT-263” for “ABT-737”

[22] = system: SUDHL4; conditions: Homo sapiens, SU-DHL-4, read-out: sensitivity class by EC50
Description: as §1, §2
as §2, with “ABT-263” for “ABT-737”

[23] = system: SUP-B15; conditions: Homo sapiens, read-out: sensitivity class by EC50
Description: as §1, §2
as §2, with “ABT-263” for “ABT-737”

[24] = system: U-937; conditions: Homo sapiens, read-out: sensitivity class by EC50
Description: as §1, §2
as §2, with “ABT-263” for “ABT-737”

[25] = system: WSU-NHL; conditions: Homo sapiens, read-out: sensitivity class by EC50
Description: as §1, §2
as §2, with “ABT-263” for “ABT-737”

SMILES | EC50 [1] | EC50 [2] | EC50 [3] | EC50 [4] | EC50 [5] | EC50 [6] | EC50 [7] | EC50 [8] | EC50 [9] | EC50 [10] | EC50 [11] | EC50 [12] | EC50 [13] | EC50 [14] | EC50 [15] | EC50 [16] | EC50 [17] | EC50 [18] | EC50 [19] | EC50 [20] | further results
CC1(C)CCC(c2ccc(Cl)cc2)=C(CN2CCN(c3ccc(C(=O)NS(=O)(=O)c4ccc(N[C@H](CCN5CCOCC5)CSc5ccccc5)c(S(=O)(=O)C(F)(F)F)c4)cc3)CC2)C1 [ABT-263, N-(4-(4-((2-(4-chlorophenyl)-5,5-dimethyl-1-cyclohex-1-en-1-yl)methyl)piperazin-1-yl)benzoyl)-4-(((1R)-3-(morpholin-4-yl)-1-((phenylsulfanyl)methyl)propyl)amino)-3-((trifluoromethyl)sulfonyl)benzenesulfonamide] | < 5 µM | < 5 µM | < 5 µM | < 5 µM | < 5 µM | < 5 µM | < 5 µM | < 5 µM | > 5 µM | > 5 µM | < 5 µM | < 5 µM | > 5 µM | < 5 µM | < 5 µM | < 5 µM | < 5 µM | < 5 µM | > 5 µM | < 5 µM | EC50 [21]: < 5 µM; EC50 [22]: < 5 µM; EC50 [23]: < 5 µM; EC50 [24]: > 5 µM; EC50 [25]: < 5 µM
CN(C)CC[C@H](CSc1ccccc1)Nc1ccc(S(=O)(=O)NC(=O)c2ccc(N3CCN(Cc4ccccc4-c4ccc(Cl)cc4)CC3)cc2)cc1[N+](=O)[O-] [ABT-737, N-(4-(4-((4′-chloro(1,1′-biphenyl)-2-yl)methyl)piperazin-1-yl)benzoyl)-4-(((1R)-3-(dimethylamino)-1-((phenylsulfanyl)methyl)propyl)amino)-3-nitrobenzenesulfonamide] | < 5 µM | < 5 µM | < 5 µM | < 5 µM | < 5 µM | < 5 µM | < 5 µM | < 5 µM | > 5 µM | > 5 µM | < 5 µM | < 5 µM | > 5 µM | < 5 µM | < 5 µM | < 5 µM | < 5 µM | < 5 µM | > 5 µM | < 5 µM | EC50 [21]: < 5 µM; EC50 [22]: < 5 µM; EC50 [23]: < 5 µM; EC50 [24]: > 5 µM; EC50 [25]: < 5 µM
